The record followed here is BindingDB's records for doi:10.1021/jm990095j (Medivir, 1999).

What all share (assay): HIV-1 RT Assay
In assay [1] the target is T1, Gag-Pol polyprotein [588-1027]/[588-1147] (Human immunodeficiency virus 1, UniProt P04585).
T1 construct: 588-1027; 588-1147

For assay [2], the target named is T2, Gag-Pol polyprotein [588-1027,K690N]/[588-1147,K690N] (Human immunodeficiency virus 1, UniProt P04585, K690N).
T2 construct: 588-1027; 588-1147

Assay [3] concerns the target T3, Gag-Pol polyprotein [588-1127,Y768C]/[588-1147,Y768C] (Human immunodeficiency virus 1, UniProt P04585, Y768C).
T3 construct: 588-1127; 588-1147

Consider `CN(C)c1ccc(F)c(CCNC(=O)Nc2ccc(Br)cn2)c1F`, for which the IC50 in assay [1] (pH 7.8, 37 °C) is 25 nM; in assay [2] (pH 7.8, 37 °C), more than 2500 nM.

As for `CCOc1ccc(F)c(CCNC(=O)Nc2ccc(Br)cn2)c1Cl`, the half-inhibitory concentration (IC50) in assay [1] (pH 7.8, 37 °C) is 4 nM; in assay [2] (pH 7.8, 37 °C), more than 2400 nM. In assay [1] (pH 7.8, 37 °C), `COc1ccc(OC)c(CCNC(=O)Nc2ccc(Cl)cn2)c1F` [1-(5-chloropyridin-2-yl)-3-[2-(2-fluoro-3,6-dimethoxyphenyl)ethyl]urea] registered an IC50 of 3 nM. As for `COc1c(C(C)=O)ccc(F)c1CCNC(=O)Nc1ccc(Cl)cn1` [1-(5-chloropyridin-2-yl)-3-[2-(3-acetyl-6-fluoro-2-methoxyphenyl)ethyl]urea], the IC50 in assay [2] (pH 7.8, 37 °C) is more than 2700 nM. Same read-out and setting: for `COc1ccc(C(C)=O)c(F)c1CCNC(=O)Nc1ccc(Cl)cn1` [N-[2-(3-Acetyl-2-fluoro-6-methoxyphenethyl)]-N-[2-(5-chloropyridy)]urea] the value was more than 2700 nM. In assay [2], `O=C(Nc1ccc(Cl)cn1)NC1CC1c1c(F)ccc(O)c1Cl` (stereo not drawn) [N-[cis-2-(2-Chloro-6-fluoro-3-hydroxyphenyl)cyclopropyl]-N-[2-(5-chloropyridyl)]urea] came in with an IC50 of more than 2700 nM. Still for that read-out and setting: the result for `CCC(=O)c1ccc(F)c(C2CC2NC(=O)Nc2ccc(C#N)cn2)c1O` (stereo not drawn) [N-[cis-2-(6-Fluoro-2-hydroxy-3-propionylphenyl)cyclopropyl]-N-[2-(5-cyanopyridyl)]urea] reads 97 nM. Turning to `COc1ccc2c(c1)N(C(=O)OC(C)C)[C@@H](CSC)C(=S)N2` [propan-2-yl (2S)-7-methoxy-2-[(methylsulfanyl)methyl]-3-sulfanylidene-1,2,3,4-tetrahydroquinoxaline-1-carboxylate], the IC50 in assay [1] was 8 nM; in assay [3], 9 nM; in assay [2], 56 nM.
